The test system of test [1] is mixed spheroids of keratinocytes and melanocytes. Briefly: Assay of melanin on mixed spheroids after treatment (photometry, melanin / total proteins). It counts as cell-based, Human. The protocol:
The cells were lysed in a solution of 1M NaOH+10% DMSO and incubated 30 min at 90° C. A standard range was prepared with synthetic melanin and read-out performed at a wavelength of 405 nm. Assay of total proteins was performed on the lysate of melanin assay using the microBCA kit in accordance with the supplier's instructions. A standard range was prepared with BSA and read-out was performed at a wavelength of 605 nm. The results are expressed in the form of a ratio between the assay of melanin and assay of total proteins. 24 h after seeding, the mixed spheroids of the invention such as prepared in Example 1, and after removal of Matrigel® by washing with PBS, were treated with 300 μM IBMX or 500 μM PTU for 5 days with renewal of treatment at 4 days. The melanin was assayed as explained in Example 3.

Test [2] has as its system genes MITF, TYR, TYRP1 and PMEL in mixed spheroids of keratinocytes and melanocytes. Nature of the test: Quantification of pigmentation gene expression by quantitative PCR in mixed spheroids. The conditions noted are these: 300 μM IBMX for 24 h, normalised to GAPDH, vs non-treated control. It counts as cell-based, Human. The method, then: 48 h after their seeding the mixed spheroids of the invention such as prepared in Example 1, and after removal of Matrigel® by washing with PBS, were treated with 300 μM IBMX for 24 h. The spheroids were collected and washed with PBS after 24 h treatment with IBMX. The RNAs were extracted and reverse-transcribed to cDNA. Quantitative PCR was then performed to quantify the expression of the genes MITF, TYR, TYRP1 and PMEL. The expression of these genes was normalised by expression of the GAPDH housekeeping gene and compared with the non-treated control.

“Also recorded” adds a separate entry of the source.

Turning to `CC(C)Cn1c(=O)n(C)c(=O)c2[nH]cnc21` [IBMX, 3-isobutyl-1-methylxanthine], the “induction of the amount of melanin in relation to total proteins” value in test [1] (300 μM IBMX for 5 days, renewal at 4 days, vs solvent control (DMSO)) was found to be 50%. The “total amount of melanin in the mixed spheroid” value in test [1] (300 μM IBMX for 5 days, compared with solvent control (DMSO), FIG. 8) is “increase in the total amount of melanin”. Also, the “MITF expression, increased by a factor of” value in test [2] is given as 5. In test [2] (FIG. 9), the “expression of MITF gene” value is reported as “induced; also recorded: expression increased”, the “expression of PMEL gene” value was “induced; also recorded: increased”, the “expression of TYR gene” value is listed as “induced; also recorded: increased” and the “expression of TYRP1 gene” value is given as “induced; also recorded: increased”.

`CCCc1cc(=O)[nH]c(=S)[nH]1` [PTU, propylthiouracil]: the “global amount of melanin in the mixed spheroid / melanin production” value in test [1] (500 μM PTU for 5 days, compared with solvent control (EtOH), FIG. 8) was “inhibits melanin production; also recorded: decrease in the global amount of melanin”.

The record behind these values is patent publication US20170248582A1, “Mixed Spheroids of Melanocytes and Keratinocytes” (Syntivia, priority 2014, published 2017).
